According to the supplement of paper PMC6045584:
± gives the standard deviation of the averaged measurements.

Tests used:
OSI-906 = compound: C[C@]1(O)C[C@@H](c2nc(-c3ccc4ccc(-c5ccccc5)nc4c3)c3c(N)nccn32)C1 [OSI-906]; test: surviving fraction relative to DMSO-only wells; higher = less growth inhibition; conditions: exposure time: 5 days
How it was run: (§1)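 In 384-well plates, 250–500 log-phase tumour cells per well were given 24 hours before five days of continuous exposure to inhibitors at 0.5, 1, 5, 10, 50, 100, 500 and 1000 nM. Surviving fraction is luminescence from CellTiter-Glo, normalised to the median of wells containing DMSO alone. Reading took place after 10 minutes at room temperature.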

CARBOPLATIN = compound: O=C(O)C1(C(=O)O)CCC1.[NH2-].[NH2-].[Pt+2] [CARBOPLATIN]; test: as above; conditions: exposure time: 5 days
How it was run: as §1

Test System	surviving fraction (OSI-906; 0.5 nM)	surviving fraction (OSI-906; 1 nM)	surviving fraction (OSI-906; 5 nM)	surviving fraction (OSI-906; 10 nM)	surviving fraction (OSI-906; 50 nM)	surviving fraction (OSI-906; 100 nM)	surviving fraction (OSI-906; 500 nM)	surviving fraction (OSI-906; 1000 nM)	surviving fraction (CARBOPLATIN; 0.5 nM)	surviving fraction (CARBOPLATIN; 1 nM)	surviving fraction (CARBOPLATIN; 5 nM)	surviving fraction (CARBOPLATIN; 10 nM)	surviving fraction (CARBOPLATIN; 50 nM)	surviving fraction (CARBOPLATIN; 100 nM)	surviving fraction (CARBOPLATIN; 500 nM)	surviving fraction (CARBOPLATIN; 1000 nM)
SNU475 LIVER	0.89 ± 0.023	0.887 ± 0.037	0.887 ± 0.012	0.869 ± 0.054	0.942 ± 0.037	0.921 ± 0.013	0.944 ± 0.011	0.963 ± 0.015	1.04 ± 0.088	1.06 ± 0.038	1.07 ± 0.041	1.05 ± 0.037	1.02 ± 0.075	1.05 ± 0.043	1.01 ± 0.04	1.04 ± 0.036
MDAMB134 BREAST	0.667 ± 0.12	0.797 ± 0.014	0.679 ± 0.039	0.627 ± 0.037	0.732 ± 0.016	0.72 ± 0.0071	0.587 ± 0.016	0.616 ± 0.088	0.906 ± 0.03	0.837 ± 0.13	0.856 ± 0.18	0.837 ± 0.033	1.01 ± 0.11	0.969 ± 0.24	1.05 ± 0.033	0.8405 ± 0.0021
HOSMNG BONE	0.94 ± 0.099	0.941 ± 0.076	0.948 ± 0.06	0.98 ± 0.062	0.854 ± 0.086	0.993 ± 0.1	0.957 ± 0.056	1 ± 0.032	1.06 ± 0.025	1.02 ± 0.059	1.03 ± 0.075	1.05 ± 0.036	1.22 ± 0.069	1.23 ± 0.015	1.091 ± 0.0096	1.19 ± 0.013
ZR751 BREAST	0.893 ± 0.058	0.857 ± 0.08	0.879 ± 0.1	0.847 ± 0.069	0.819 ± 0.091	0.795 ± 0.076	0.634 ± 0.08	0.462 ± 0.022	1.16 ± 0.2	1.23 ± 0.071	1.14 ± 0.13	1.18 ± 0.23	1.2 ± 0.099	1.18 ± 0.25	1.26 ± 0.15	1.24 ± 0.22
OS25HAL BONE	0.866 ± 0.066	0.892 ± 0.017	0.894 ± 0.025	0.871 ± 0.017	0.854 ± 0.039	0.762 ± 0.016	0.354 ± 0.015	0.256 ± 0.037	1.09 ± 0.045	1.03 ± 0.019	0.994 ± 0.034	1.03 ± 0.019	1.18 ± 0.025	1.17 ± 0.053	1.06 ± 0.04	1.14 ± 0.029
SUM159 BREAST	0.9647 ± 0.0076	0.948 ± 0.021	0.964 ± 0.021	0.944 ± 0.036	0.977 ± 0.013	0.95 ± 0.021	0.953 ± 0.012	0.927 ± 0.016	1.12 ± 0.024	1.1 ± 0.02	1.1 ± 0.016	1.09 ± 0.024	1.09 ± 0.022	1.09 ± 0.015	1.11 ± 0.022	1.092 ± 0.01
RDES SOFT TISSUE	0.836 ± 0.081	0.818 ± 0.12	0.77 ± 0.14	0.733 ± 0.18	1.1 ± 0.019	1.05 ± 0.086	0.84 ± 0.015	0.555 ± 0.032	1.23 ± 0.035	0.987 ± 0.091	1.14 ± 0.1	1.11 ± 0.083	1.09 ± 0.15	1.23 ± 0.13	1.08 ± 0.099	1.15 ± 0.14
SCC90 HEADNECK	0.88 ± 0.033	0.822 ± 0.075	0.89 ± 0.096	0.883 ± 0.026	1.03 ± 0.098	1.02 ± 0.027	0.971 ± 0.019	0.981 ± 0.078	1.02 ± 0.023	1.04 ± 0.034	1.12 ± 0.18	1.11 ± 0.034	1.2 ± 0.07	1.15 ± 0.012	1.14 ± 0.098	1.16 ± 0.12
HU09 BONE	0.79 ± 0.071	0.852 ± 0.082	0.956 ± 0.067	0.909 ± 0.043	0.854 ± 0.11	0.785 ± 0.027	0.517 ± 0.087	0.481 ± 0.04	0.977 ± 0.027	0.955 ± 0.056	1.17 ± 0.069	1.09 ± 0.021	1.09 ± 0.046	1.11 ± 0.13	1.09 ± 0.076	1.07 ± 0.12
S68 BREAST	0.611 ± 0.24	0.727 ± 0.17	0.797 ± 0.27	0.721 ± 0.37	1.19 ± 0.28	1.06 ± 0.21	0.828 ± 0.19	0.756 ± 0.05	1.08 ± 0.28	1.01 ± 0.082	0.9 ± 0.16	1.4 ± 0.15	1.22 ± 0.6	1.14 ± 0.38	1.11 ± 0.21	1.29 ± 0.11
CAL51 BREAST	0.958 ± 0.023	0.924 ± 0.018	0.9553 ± 0.0093	0.94 ± 0.087	1.01 ± 0.02	0.992 ± 0.031	0.948 ± 0.029	0.922 ± 0.074	0.974 ± 0.023	0.924 ± 0.08	0.98 ± 0.018	0.996 ± 0.017	1.03 ± 0.077	1.02 ± 0.022	1.09 ± 0.022	0.977 ± 0.024
HUO3N1 BONE	0.938 ± 0.09	0.933 ± 0.068	0.948 ± 0.082	0.92 ± 0.053	0.975 ± 0.047	0.88 ± 0.029	0.779 ± 0.031	0.794 ± 0.035	1.08 ± 0.016	1.06 ± 0.061	1.13 ± 0.065	1.12 ± 0.046	1.11 ± 0.05	1.09 ± 0.034	1.05 ± 0.016	0.98 ± 0.068
HMT3552 BREAST	0.916 ± 0.058	0.942 ± 0.017	0.988 ± 0.057	0.937 ± 0.064	1.05 ± 0.05	0.954 ± 0.023	0.828 ± 0.073	0.748 ± 0.035	1.03 ± 0.063	0.996 ± 0.11	1.02 ± 0.032	1.03 ± 0.065	1.205 ± 0.0096	1.17 ± 0.059	1.25 ± 0.031	1.14 ± 0.088
MDAMB468 BREAST	0.867 ± 0.12	0.833 ± 0.13	0.95 ± 0.032	0.955 ± 0.092	1.06 ± 0.087	1.03 ± 0.036	0.851 ± 0.09	0.846 ± 0.019	0.973 ± 0.031	0.96 ± 0.067	1.07 ± 0.032	0.991 ± 0.046	1.1 ± 0.1	1.02 ± 0.019	1.08 ± 0.063	0.975 ± 0.072
G292 BONE	0.923 ± 0.032	0.929 ± 0.035	0.929 ± 0.04	0.919 ± 0.034	0.728 ± 0.059	0.624 ± 0.021	0.579 ± 0.04	0.553 ± 0.045	1.01 ± 0.039	1 ± 0.026	1.07 ± 0.044	1.05 ± 0.015	1.04 ± 0.064	1.04 ± 0.029	1.01 ± 0.021	1.03 ± 0.064
HS578T BREAST	0.846 ± 0.12	0.968 ± 0.16	0.865 ± 0.12	0.846 ± 0.049	1.09 ± 0.13	0.931 ± 0.19	1.07 ± 0.073	1.15 ± 0.18	1.06 ± 0.25	1.04 ± 0.091	1.07 ± 0.14	1.12 ± 0.16	0.964 ± 0.055	1.03 ± 0.13	0.992 ± 0.17	1 ± 0.076
MDAMB231 BREAST	0.917 ± 0.034	0.9167 ± 0.0045	0.937 ± 0.021	0.918 ± 0.03	0.957 ± 0.031	0.947 ± 0.013	0.922 ± 0.014	0.908 ± 0.032	0.997 ± 0.048	0.988 ± 0.019	0.994 ± 0.036	1 ± 0.027	1.01 ± 0.019	1.02 ± 0.038	1.03 ± 0.026	1.02 ± 0.041
BT20 BREAST	0.736 ± 0.051	0.724 ± 0.058	0.776 ± 0.05	0.763 ± 0.073	1 ± 0.031	1.05 ± 0.095	1.23 ± 0.05	1.28 ± 0.04	1.11 ± 0.04	1.19 ± 0.12	1.39 ± 0.49	1.24 ± 0.04	1.2 ± 0.088	1.29 ± 0.14	1.33 ± 0.16	1.11 ± 0.069
SG27 HEADNECK	1.1 ± 0.12	1.08 ± 0.064	0.916 ± 0.071	0.966 ± 0.059	1 ± 0.054	0.946 ± 0.044	0.807 ± 0.086	0.617 ± 0.069	1.13 ± 0.014	1.05 ± 0.017	1.12 ± 0.1	1.04 ± 0.038	1.18 ± 0.12	1.02 ± 0.13	1.14 ± 0.27	1.03 ± 0.11
SG28 HEADNECK	0.829 ± 0.16	0.78 ± 0.098	0.769 ± 0.16	0.792 ± 0.02	0.88 ± 0.06	0.867 ± 0.089	0.692 ± 0.021	0.547 ± 0.034	1.23 ± 0.042	1.1	1.07 ± 0.065	0.97 ± 0.0014	1.024 ± 0.0035	1 ± 0.084	1.11 ± 0.034	1.18 ± 0.19
